Measured values: patent publication US8362000B2, “Azetidinyl diamides as monoacylglycerol lipase inhibitors” (Janssen Pharmaceutica NV, priority 2009, dated 2013)
Like-named read-outs stand apart in the source and are kept apart here.

Key:
MGL = target: T1, MGL (Rattus norvegicus, UniProt Q8R431); assay: 2-AG accumulation assay in rat brain homogenate; type: biochemical; details: rat brain homogenate, 2-AG accumulation as percent of vehicle; for 2-AG accumulation, % of vehicle control at 1 µM: compound 1 μM, read-out: Rat Brain 2AG % VehCntrl (%) @ 1 μM; for 2-AG accumulation, % of vehicle control at 10 µM: compound 10 μM, read-out: Rat Brain 2AG % VehCntrl (%) @ 10 μM
T1 construct: one g rat brain was homogenized using a Polytron homogenizer; from tissue; host or cells: rat brain homogenate
T1 sequence (Q8R431 1-303): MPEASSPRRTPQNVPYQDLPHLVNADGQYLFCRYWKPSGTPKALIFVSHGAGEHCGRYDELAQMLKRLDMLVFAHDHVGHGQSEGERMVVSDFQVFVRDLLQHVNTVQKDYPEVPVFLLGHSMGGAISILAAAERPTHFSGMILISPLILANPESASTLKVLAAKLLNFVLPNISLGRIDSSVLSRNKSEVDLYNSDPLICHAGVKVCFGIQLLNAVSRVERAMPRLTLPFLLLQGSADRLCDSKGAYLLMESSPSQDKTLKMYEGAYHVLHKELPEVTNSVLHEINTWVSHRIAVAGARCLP

mutant MGL = target: T2, mutant MGL (Homo sapiens, UniProt Q99685, L169S/L176S); assay: MGL ThermoFluor assay - mutant; type: binding
T2 sequence (Q99685 1-303 L169S/L176S): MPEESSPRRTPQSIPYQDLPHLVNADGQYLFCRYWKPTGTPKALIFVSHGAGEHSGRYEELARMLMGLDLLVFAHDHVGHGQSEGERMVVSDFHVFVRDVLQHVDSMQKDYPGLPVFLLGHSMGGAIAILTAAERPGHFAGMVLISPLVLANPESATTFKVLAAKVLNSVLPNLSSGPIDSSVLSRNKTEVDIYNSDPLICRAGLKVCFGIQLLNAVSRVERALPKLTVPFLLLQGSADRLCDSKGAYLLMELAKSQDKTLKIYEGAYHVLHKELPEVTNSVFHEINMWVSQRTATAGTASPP

[1] = ThermoFluor thermal stability binding assay, read-out: MGL mutant ThermoFluor Kd
[2] = ThermoFluor concentration-response, read-out: MGL mutant ThermoFluor Kd

Row | 2-AG accumulation, % of vehicle control at 1 µM (MGL) [%] | Kd (mutant MGL; [1]) [µM] | Kd (mutant MGL; [2]) [µM] | 2-AG accumulation, % of vehicle control at 10 µM (MGL) [%] | Kd (mutant MGL; ThermoFluor, compound concentration measured by qNMR, read-out: MGL mutant ThermoFluor qKd (μM) (using qNMR conc.)) [µM] | SMILES
1 | 432 | 0.0353 | – | – | – | O=C(c1ccc2c(c1)CCCN2S(=O)(=O)c1ccccc1)N1CC(N2CCN(C(=O)c3nccs3)CC2)C1 [Cpd 366, 1-(Phenylsulfonyl)-6-({3-[4-(1,3-thiazol-2-ylcarbonyl)piperazin-1-yl]azetidin-1-yl}carbonyl)-1,2,3,4-tetrahydroquinoline]
2 | 392 | – | 0.633 | – | – | COc1cncc(Oc2ccc(C(=O)N3CC(N4CCN(C(=O)c5nccs5)CC4)C3)cc2)c1 [Cpd 904]
3 | – | – | 0.00345 | 923 | – | O=C(c1ccc(-c2ccc(Cl)cc2)cc1)N1CC(N2CCN(C(=O)c3nccs3)CC2)C1 [Cpd 163, 1-{1-[(4′-Chlorobiphenyl-4-yl)carbonyl]azetidin-3-yl}-4-(1,3-thiazol-2-ylcarbonyl)piperazine]
4 | 125 | 0.125 | – | – | – | O=C(c1ccccc1)N1CCN(C2CN(C(=O)c3ccc(-c4ccc(C(F)(F)F)cc4)s3)C2)CC1 [Cpd 347]
5 | 366 | – | 0.014 | – | – | O=C(c1ccccc1)N1CCN(C2CN(C(=O)c3ccc(NCc4ccccc4)c(I)c3)C2)CC1 [Cpd 542]
6 | 186 | 0.144 | – | – | – | CS(=O)(=O)N1CCCc2cc(C(=O)N3CC(N4CCN(C(=O)c5nccs5)CC4)C3)ccc21 [Cpd 361]
7 | – | 0.02 | – | 652 | – | O=C(c1ccc(-c2ccc(F)cc2F)cc1)N1CC(N2CCN(C(=O)c3cscn3)CC2)C1 [Cpd 226, 1-{1-[(2′,4′-Difluorobiphenyl-4-yl)carbonyl]azetidin-3-yl}-4-(1,3-thiazol-4-ylcarbonyl)piperazine]
8 | – | – | 0.0242 | 490 | – | CN(c1ccccc1)c1ccc(C(=O)N2CC(N3CCN(C(=O)c4ccccc4)CC3)C2)cc1 [Cpd 40, N-Methyl-N-phenyl-4-({3-[4-(phenylcarbonyl)piperazin-1-yl]azetidin-1-yl}carbonyl)aniline]
9 | 514 | – | 0.081 | – | – | O=C(c1ccc(CSc2cccc(Cl)c2)cc1)N1CC(N2CCN(C(=O)c3cscn3)CC2)C1 [Cpd 956]
10 | – | – | 0.0333 | 741 | – | O=C(c1ccccc1)N1CCN(C2CN(C(=O)c3ccc(SCc4cccc(Cl)c4Cl)cc3)C2)CC1 [Cpd 411, 1-[1-({4-[(2,3-Dichlorobenzyl)sulfanyl]phenyl}carbonyl)azetidin-3-yl]-4-(phenylcarbonyl)piperazine]
11 | 197 | – | 0.002 | – | – | O=C(c1nccs1)N1CCN(C2CN(C(=O)c3ccc(-c4ccccc4)cc3F)C2)CC1 [Cpd 1405, 1-{1-[(3-Fluorobiphenyl-4-yl)carbonyl]azetidin-3-yl}-4-(1,3-thiazol-2-ylcarbonyl)piperazine]
12 | 170 | – | 0.499 | – | – | O=C(c1nccs1)N1CCN(C2CN(C(=O)[C@@H]3C[C@H]3c3ccccc3Cl)C2)CC1 (racemic) [Cpd 642]
13 | 908 | 0.078 | – | – | – | CC(C)(C)OC(=O)N1CCC(c2ccc(C(=O)N3CC(N4CCN(C(=O)c5cscn5)CC4)C3)cc2)CC1 [Cpd 903]
14 | 807 | – | – | – | 0.01 | O=C(c1ccc2c(cnn2-c2cccc(F)c2)c1)N1CC(N2CCN(C(=O)c3nccs3)CC2)C1 [Cpd 1110]
15 | 182 | 0.109 | – | – | – | O=C(c1cscn1)N1CCN(C2CN(C(=O)c3cc4cccc(C(F)(F)F)c4s3)C2)CC1 [Cpd 332, 1-(1,3-Thiazol-4-ylcarbonyl)-4-(1-{[7-(trifluoromethyl)-1-benzothiophen-2-yl]carbonyl}azetidin-3-yl)piperazine]
16 | 120 | 0.0167 | – | – | – | Cc1cc(C(=O)N2CC(N3CCN(C(=O)c4ccccc4)CC3)C2)ccc1-c1cccc(C(F)(F)F)c1 [Cpd 243, 1-(1-{[2-Methyl-3′-(trifluoromethyl)biphenyl-4-yl]carbonyl}azetidin-3-yl)-4-(phenylcarbonyl)piperazine]
17 | – | – | 0.00909 | 231 | – | O=C(c1ccccc1)N1CCN(C2CN(C(=O)c3ccc(-c4cccc(Cl)c4)cc3)C2)CC1 [Cpd 77, 1-{1-[(3′-Chlorobiphenyl-4-yl)carbonyl]azetidin-3-yl}-4-(phenylcarbonyl)piperazine]

Row | 2-AG accumulation, % of vehicle control at 1 µM (MGL) [%] | Kd (mutant MGL; [1]) [µM] | Kd (mutant MGL; [2]) [µM] | 2-AG accumulation, % of vehicle control at 10 µM (MGL) [%] | Kd (mutant MGL; ThermoFluor, compound concentration measured by qNMR, read-out: MGL mutant ThermoFluor qKd (μM) (using qNMR conc.)) [µM] | SMILES
18 | 149 | 0.016 | – | – | – | [2H]c1c([2H])c([2H])c(C(=O)N2CCN(C3CN(C(=O)c4ccc(-c5cccc(C(F)(F)F)c5)cc4)C3)CC2)c([2H])c1[2H] [Cpd 186-A]
19 | 392 | 0.0869 | – | – | – | O=C(c1ccc(OCc2ccncc2)c(Cl)c1)N1CC(N2CCN(C(=O)c3nccs3)CC2)C1 [Cpd 398, 1-(1-{[3-Chloro-4-(pyridin-4-ylmethoxy)phenyl]carbon-yl}azetidin-3-yl)-4-(1,3-thiazol-2-ylcarbonyl)piperazine]
20 | 87 | – | 0.066 | – | – | O=C(c1ccccc1)N1CCN(C2CN(C(=O)c3ccc(-c4ccccc4)cc3F)C2)CC1 [Cpd 614]
21 | 144 | – | 0.325 | – | – | O=C(c1ccc(Oc2ccccn2)c(F)c1)N1CC(N2CCN(C(=O)c3nccs3)CC2)C1 [Cpd 909]
22 | 99 | 0.932 | – | – | – | O=C(c1ccccc1)N1CCN(C2CN(C(=O)c3ccc(OCc4ccccn4)c(Cl)c3)C2)CC1 [Cpd 406]
23 | 141 | 0.25 | – | – | – | O=C(c1ccc(-c2ccccc2)cc1)N1CC(N2CCN(C(=O)c3ccns3)CC2)C1 [Cpd 310, 1-[1-(Biphenyl-4-ylcarbonyl)azetidin-3-yl]-4-(isothiazol-5-ylcarbonyl)piperazine]
24 | 119 | – | 0.044 | – | – | O=C(c1cscn1)N1CC(N2CCN(C(=O)c3cc4cc(C(F)(F)F)ccc4s3)C(c3ccccc3)C2)C1 (stereo not drawn) [Cpd 905, 2-Phenyl-4-[1-(1,3-thiazol-4-ylcarbonyl)azetidin-3-yl]-1-{[5-(trifluoromethyl)-1-benzothiophen-2-yl]carbonyl}piperazine]
25 | 172 | 0.01 | – | – | – | COc1cc(C(=O)N2CC(N3CCN(C(=O)c4ccccc4)CC3)C2)ccc1-c1ccc(Cl)c(C(F)(F)F)c1 [Cpd 264, 1-(1-{[4′-Chloro-2-methoxy-3′-(trifluoromethyl)biphenyl-4-yl]carbonyl}azetidin-3-yl)-4-(phenylcarbonyl)piperazine]
26 | – | 0.0013 | – | 494 | – | O=C(c1cc2ccc(C(F)(F)F)cc2s1)N1CC(N2CCN(C(=O)c3nccs3)CC2)C1 [Cpd 323, 1-(1,3-Thiazol-2-ylcarbonyl)-4-(1-{[6-(trifluoromethyl)-1-benzothiophen-2-yl]carbonyl}azetidin-3-yl)piperazine]
27 | 819 | 0.068 | – | – | – | O=C(c1ccc2c(c1)CCCN2C(=O)C1CCCCC1)N1CC(N2CCN(C(=O)c3nccs3)CC2)C1 [Cpd 360]
28 | – | – | 0.0143 | 448 | – | O=C(c1ccc(-c2ccccc2)cc1)N1CC(N2CCN(C(=O)c3ccc(Br)o3)CC2)C1 [Cpd 12, 1-[1-(Biphenyl-4-ylcarbonyl)azetidin-3-yl]-4-[(5-bromofuran-2-yl)carbonyl]piperazine]
29 | 115 | 0.027 | – | – | – | Cc1cc(-c2ccc(F)c(Cl)c2)ccc1C(=O)N1CC(N2CCN(C(=O)c3ccccc3)CC2)C1 [Cpd 255, 1-{1-[(3′-Chloro-4′-fluoro-3-methylbiphenyl-4-yl)carbonyl]azetidin-3-yl}-4-(phenylcarbonyl)piperazine]
30 | 156 | 0.0077 | – | – | – | Cc1cc(C(=O)N2CC(N3CCN(C(=O)c4ccccc4)CC3)C2)ccc1-c1ccc(F)c(Cl)c1 [Cpd 259, 1-{1-[(3′-Chloro-4′-fluoro-2-methylbiphenyl-4-yl)carbonyl]azetidin-3-yl}-4-(phenylcarbonyl)piperazine]
31 | – | – | 0.00049 | 911 | – | O=C(c1ccc(C2CCCCC2)cc1)N1CC(N2CCN(C(=O)c3ccco3)CC2)C1 [Cpd 2, 1-{1-[(4-Cyclohexylphenyl)carbonyl]azetidin-3-yl}-4-(furan-2-ylcarbonyl)piperazine]
32 | 318 | – | 0.0331 | – | – | O=C(c1ccc(Sc2cccc(Cl)c2)cc1)N1CC(N2CCN(C(=O)c3cscn3)CC2)C1 [Cpd 429]
33 | 556 | 0.065 | – | – | – | O=C(c1ccc2c(c1)CCCN2C(=O)c1cccc(C(F)(F)F)c1)N1CC(N2CCN(C(=O)c3nccs3)CC2)C1 [Cpd 358, 6-(3-[4-(1,3-Thiazol-2-ylcarbonyl)piperazin-1-yl]-azetidin-1-yl)-carbonyl 1-[3-(trifluoromethyl)phenyl]carbonyl-1,2,3,4-tetrahydroquinoline]
